Where “and” joins values, the source holds several entries; their conditions need not be identical. Equal entries are not always repeated. Where two headings read alike, the source gives them in different places. Values belong to the compound of their own block, whether it stands above or below them.
What was measured:
[1] = background statement, no reference given; cited from earlier work
[2] = assay type: in vivo, human
[3] = mean±SD; for CL renal: human, urine, CLr (renal clearance)
[4] = tested on: blood glucose; assay: Blood glucose level after glyburide dosing; assay type: in vivo, human; settings: rifampin IV (Treatment C) phase in comparison to other treatment groups; repeated ANOVA p<0.0001
[5] = Safety assessment in the clinical study; assay type: in vivo, human
[6] = multiple doses of rifampin; cited from earlier work
[7] = tested on: blood glucose; settings: concomitant rifampin versus control; cited from earlier work
[8] = tested on: P-glycoprotein (P-gp); settings: cited from earlier work
[9] = Treatment A: 1.25 mg oral glyburide alone (control), mean±SD, n=9
[10] = Treatment A: 1.25 mg oral glyburide alone (control), median and range
[11] = Treatment A: 1.25 mg oral glyburide alone (control), plasma, mean±SD, n=9
[12] = Treatment B (ciprofloxacin IV phase) vs Treatment A
[13] = Treatment B: 200 mg iv ciprofloxacin just before 1.25 mg oral glyburide, median and range
[14] = Treatment C (rifampin IV phase) vs Treatment A
[15] = Treatment C: single 600 mg iv rifampin then 1.25 mg oral glyburide, mean±SD, n=9
[16] = Treatment D (rifampin IV after oral induction) compared with Treatment E
[17] = Treatment D (rifampin IV after oral induction) compared with control Treatment A
[18] = Treatment D (rifampin IV/PO phase) vs Treatment A
[19] = Treatment D: 600 mg oral rifampin daily for 6 days, next day 600 mg iv rifampin then 1.25 mg oral glyburide, median and range
[20] = Treatment E (rifampin PO phase) vs Treatment A
[21] = iv rifampin effect under induced conditions (Treatment D / Treatment E)
[22] = iv rifampin effect under noninduced conditions (Treatment C / Treatment A)
[23] = single IV infusion of rifampin (Treatment C) compared with control Treatment A
[24] = single IV infusion of rifampin (Treatment C) vs control Treatment A

Compound: COc1ccc(Cl)cc1C(=O)NCCc1ccc(S(=O)(=O)NC(=O)N[C@@H]2CCC[C@H](O)C2)cc1 (relative stereo) [3-cis-hydroxyglyburide]
- hypoglycemic activity (potency) retained relative to the parent compound [1]: 50%

- AUCm/AUCp (AUC ratio of 4-hydroxyglyburide to glyburide) ([2]; Treatment A, glyburide control, mean±SD): 3.67±1.03%
- MRT [2, 9]: 1.6 ± 0.9 h
- t1/2 [2, 9]: 4.2 ± 1.7 h
- Tmax [2, 10]: 4(3–6) h
- AUC0-∞ [2, 11]: 66.0 ± 23.2 ng·h/mL
- Cmax [2, 11]: 9.67 ± 2.51 ng/mL
- AUC0-∞, mean % of control [2, 12]: 101 % of control
- Cmax, mean % of control [2, 12]: 99 % of control
- MRT, mean % of control [2, 12]: 89 % of control
- t1/2, mean % of control [2, 12]: 115 % of control
- AUCm/AUCp (AUC ratio of 4-hydroxyglyburide to glyburide) ([2]; Treatment B, ciprofloxacin IV, mean±SD): 3.34±0.37%
- Tmax [2, 13]: 4(3–8) h
- AUC0-∞, mean % of control [2, 14]: 145 % of control
- Cmax, mean % of control [2, 14]: 134 % of control
- MRT, mean % of control [2, 14]: 121 % of control
- t1/2, mean % of control [2, 14]: 102 % of control
- AUCm/AUCp (AUC ratio of 4-hydroxyglyburide to glyburide) ([2]; Treatment C, rifampin IV, mean±SD): 2.36±0.61 %
- MRT [2, 15]: 1.5 ± 0.8 h
- t1/2 [2, 15]: 3.8 ± 0.7 h
- Tmax ([2]; Treatment C: single 600 mg iv rifampin then 1.25 mg oral glyburide, median and range): 4(3–6) h
- increase in AUC [2, 16]: 67±44%
- increase in Cmax [2, 16]: 49±44%
- decrease in Cmax [2, 17]: not significant
- AUC0-∞, mean % of control [2, 18]: 54 % of control
- Cmax, mean % of control [2, 18]: 81 % of control
- MRT, mean % of control [2, 18]: 77 % of control
- decrease in mean residence time (MRT) ([2]; Treatment D versus control Treatment A): 23%
- AUCm/AUCp (AUC ratio of 4-hydroxyglyburide to glyburide) ([2]; Treatment D, rifampin IV/PO, mean±SD): 2.52±0.35 %
- Tmax [2, 19]: 4(3–6) h
- AUC0-∞, mean % of control [2, 20]: 33 % of control
- Cmax, mean % of control [2, 20]: 56 % of control
- MRT, mean % of control [2, 20]: 41 % of control
- AUCm/AUCp (AUC ratio of 4-hydroxyglyburide to glyburide) ([2]; Treatment E, rifampin PO, mean±SD): 3.36±0.60%
- AUC0-∞, ratio D to E [2, 21]: 1.7±0.4
- Cmax, ratio D to E [2, 21]: 1.5±0.4
- MRT, ratio D to E [2, 21]: 1.3±1.3
- AUC0-∞, ratio C to A [2, 22]: 1.5±0.4
- Cmax, ratio C to A [2, 22]: 1.3±0.5
- MRT, ratio C to A [2, 22]: 1.2±0.9
- increase in AUC0-∞ [2, 23]: 45 ± 37%
- increase in Cmax [2, 23]: 34 ± 47%
- 0–12h accumulated urine excretion ([3]; Treatment A, glyburide control): 358 ± 107 µg
- CLr (renal clearance) ([3]; Treatment A, glyburide control): 2200 ± 619 mL/day/kg
- 0–12h accumulated urine excretion ([3]; Treatment B, ciprofloxacin IV): 325 ± 77 µg
- CLr (renal clearance) ([3]; Treatment B, ciprofloxacin IV): 2220 ± 564 mL/day/kg
- 0–12h accumulated urine excretion ([3]; Treatment C, rifampin IV): 457 ± 72 µg
- CLr (renal clearance) ([3]; Treatment C, rifampin IV): 2120 ± 629 mL/day/kg
- 0–12h accumulated urine excretion ([3]; Treatment D, rifampin IV/PO): 208±56 ^** ug
- CLr (renal clearance) ([3]; Treatment D, rifampin IV/PO): 2100 ± 401 mL/day/kg
- 0–12h accumulated urine excretion ([3]; Treatment E, rifampin PO): 135 ± 40 µg
- CLr (renal clearance) ([3]; Treatment E, rifampin PO): 2200 ± 665 mL/day/kg
Compound: COc1ccc(Cl)cc1C(=O)NCCc1ccc(S(=O)(=O)NC(=O)NC2CCC(O)CC2)cc1 (stereo not drawn) [4-hydroxyglyburide, 4-trans-hydroxyglyburide]
- hypoglycemic activity (potency) retained relative to the parent compound [1]: 75%

- CL/F [2, 9]: 10.1±3.1 mI/h/kg
- Vss/F [2, 9]: 49±33 mI/kg
- Tmax [2, 10]: 3(2–4) h
- AUC0-∞, mean % of control [2, 12]: 107 % of control
- Cmax, mean % of control [2, 12]: 95 % of control
- MRT, mean % of control [2, 12]: 119 % of control
- t1/2, mean % of control [2, 12]: 108 % of control
- Tmax [2, 13]: 3(2–6) h
- AUC0-∞, mean % of control [2, 14]: 225 % of control
- Cmax, mean % of control [2, 14]: 181 % of control
- MRT, mean % of control [2, 14]: 84 % of control
- t1/2, mean % of control [2, 14]: 84 % of control
- CL/F [2, 15]: 4.59±1.20 mI/h/kg
- Vss/F [2, 15]: 16±7 mI/kg
- increase in AUC [2, 16]: 120±56%
- increase in Cmax [2, 16]: 92±76%
- decrease in AUC0-∞ [2, 17]: 22±21% and 22%
- decrease in Cmax [2, 17]: 9±0.3% and 8%
- AUC0-∞, mean % of control [2, 18]: 78 % of control
- Cmax, mean % of control [2, 18]: 91 % of control
- MRT, mean % of control [2, 18]: 61 % of control
- Tmax [2, 19]: 3(2–4) h
- AUC0-∞, mean % of control [2, 20]: 37 % of control
- Cmax, mean % of control [2, 20]: 52 % of control
- MRT, mean % of control [2, 20]: 53 % of control
- change in any pharmacokinetic parameter ([2]; ciprofloxacin co-administered with glyburide (Treatment B) vs Treatment A): No significant changes in any parameter
- Tmax ([2]; human, plasma, oral): 3 h
- Tmax ([2]; human, plasma, po, 1.25 mg): 3 h
- AUC(0-inf) ([2]; human, plasma, po, 1.25 mg, AUC0-∞, Treatment A: 1.25 mg oral glyburide alone (control), plasma, mean±SD, n=9): 1890 ± 682 ng·h/mL
- Cmax ([2]; human, plasma, po, 1.25 mg, Cmax, Treatment A: 1.25 mg oral glyburide alone (control), plasma, mean±SD, n=9): 384 ± 135 ng/mL
- MRT ([2]; human, plasma, po, 1.25 mg, MRT, Treatment A: 1.25 mg oral glyburide alone (control), mean±SD, n=9): 4.5 ± 2 h
- half-life ([2]; human, plasma, po, 1.25 mg, t1/2, Treatment A: 1.25 mg oral glyburide alone (control), mean±SD, n=9): 4.7 ± 1.3 h
- increase in AUC0-∞ [2, 23]: 125± 51.5% and 125%
- increase in Cmax [2, 23]: 81 ± 28% and 81%
- change in apparent terminal half-life (t1/2) ([2]; single IV infusion of rifampin (Treatment C) vs control): did not change
- decrease in oral clearance (CL/F) [2, 24]: 53 ± 13%
- decrease in oral steady-state volume of distribution (Vss/F) [2, 24]: 60 ± 29%
- 0–12h accumulated urine excretion ([3]; Treatment A, glyburide control): 1.8 ± 1.1 µg
- 0–12h accumulated urine excretion ([3]; Treatment B, ciprofloxacin IV): 1.7 ± 0.6 µg
- 0–12h accumulated urine excretion ([3]; Treatment C, rifampin IV): 3.9 ± 1.3 µg
- 0–12h accumulated urine excretion ([3]; Treatment D, rifampin IV/PO): 1.4 ± 0.5 µg
- 0–12h accumulated urine excretion ([3]; Treatment E, rifampin PO): 1.3 ± 0.7 µg
- CL renal ([3]; iv, Treatment B, ciprofloxacin IV): 0.36 mL/day/kg
- CL renal ([3]; iv, Treatment C, rifampin IV): 0.384 mL/day/kg
- CL renal ([3]; oral, 1.25 mg, Treatment A, glyburide control): 0.408 mL/day/kg
- CL renal ([3]; oral, Treatment D, rifampin IV/PO): 0.384 mL/day/kg
- CL renal ([3]; po, 1.25 mg, Treatment E, rifampin PO): 0.744 mL/day/kg
Compound: COc1ccc(Cl)cc1C(=O)NCCc1ccc(S(=O)(=O)NC(=O)NC2CCCCC2)cc1 [glyburide]
- decremental AUC0–12 of blood glucose [4]: statistically significant decrease
- serious adverse events ([5]; during or after the study, all treatments): No serious adverse events
- decrease in AUC of glyburide by rifampin [6]: 39%
- decrease in maximal concentration (Cmax) of glyburide by rifampin [6]: 22%
- change in blood glucose decremental AUC(0–7) (net area below baseline) [7]: −44%
- change in maximum decrease in the blood glucose concentration [7]: −36%

Compound: CO[C@H]1/C=C/O[C@@]2(C)Oc3c(C)c(O)c4c(O)c(c(/C=N/N5CCN(C)CC5)c(O)c4c3C2=O)NC(=O)/C(C)=C\C=C\[C@H](C)[C@H](O)[C@@H](C)[C@@H](O)[C@@H](C)[C@H](OC(C)=O)[C@@H]1C [rifampin]
- adverse event leading to withdrawal ([5]; one subject, after visit 3): allergy to rifampin
- inhibition of Pgp [8]: does not inhibit Pgp

From paper PMC3582657 (Clinical pharmacology and therapeutics, 2008)
